SMILES	melting point
Cn1nnc2ccc(C(=O)Nc3nc(-c4ccco4)c(C(=O)c4ccccn4)s3)cc21 [Compound 245, N-[4-(2-Furyl)-5-(pyridin-2-ylcarbonyl)thiazol-2-yl]-1-methyl-1H-benzotriazole-6-carboxamide]	230 to 231 °C
CC(O)c1cc2cc(C(=O)Nc3nc(-c4ccco4)c(C(=O)c4ccccn4)s3)ccc2o1 (stereo not drawn) [Compound 246, N-[4-(2-Furyl)-5-(pyridin-2-ylcarbonyl)thiazol-2-yl]-2-(1-hydroxyethyl)-1-benzofuran-5-carboxamide]	246 to 249 °C
CC(C)(O)c1cc2cc(C(=O)Nc3nc(-c4ccco4)c(C(=O)c4ccccn4)s3)ccc2o1 [Compound 247, N-[4-(2-Furyl)-5-(pyridin-2-ylcarbonyl)thiazol-2-yl]-2-(1-hydroxy-1-methylethyl)-1-benzofuran-5-carboxamide]	230 to 231 °C
O=C(Nc1nc(-c2ccco2)c(C(=O)c2ccccn2)s1)c1cnc2occc2c1 [Compound 248, N-[4-(2-Furyl)-5-(pyridin-2-ylcarbonyl)thiazol-2-yl]furo[2,3-b]pyridine-5-carboxamide]	234 to 235 °C
COCCCNC(=O)Nc1nc(-c2ccco2)c(C(=O)c2ccccn2)s1 [Compound 261, N-[4-(2-Furyl)-5-(pyridin-2-ylcarbonyl)thiazol-2-yl]-N′-(3-methoxypropyl)urea]	169 to 170 °C
C[C@@H]1CN(CC(=O)Nc2nc(-c3ccco3)c(C(=O)c3ccccn3)s2)C[C@H](C)O1 [Compound 265, 2-(cis-2,6-Dimethylmorpholino)-N-[4-(2-furyl)-5-(pyridin-2-ylcarbonyl)thiazol-2-yl]acetamide]	188 to 191 °C
O=C(CN1CCC2(CC1)OCCO2)Nc1nc(-c2ccco2)c(C(=O)c2ccccn2)s1 [Compound 269, 2-(1,4-Dioxa-8-azaspiro[4.5]decan-8-yl)-N-[4-(2-furyl)-5-(pyridin-2-ylcarbonyl)thiazol-2-yl]acetamide]	188 to 204 °C
O=C(CN1CCC(N2CCCCC2)CC1)Nc1nc(-c2ccco2)c(C(=O)c2ccccn2)s1 [Compound 270, N-[4-(2-Furyl)-5-(pyridin-2-ylcarbonyl)thiazol-2-yl]-2-(4-piperidinopiperidino)acetamide]	214 to 220 °C (dec.)
O=C(CN1CCC(N2CCOCC2)CC1)Nc1nc(-c2ccco2)c(C(=O)c2ccccn2)s1 [Compound 271, N-[4-(2-Furyl)-5-(pyridin-2-ylcarbonyl)thiazol-2-yl]-2-(4-morpholinopiperidino)acetamide]	149 to 150 °C
O=C(CN1CCN(c2ccccc2)CC1)Nc1nc(-c2ccco2)c(C(=O)c2ccccn2)s1 [Compound 276, N-[4-(2-Furyl)-5-(pyridin-2-ylcarbonyl)thiazol-2-yl]-2-(4-phenylpiperazin-1-yl)acetamide]	203 to 204 °C
O=C(CN1CCN(c2ccccn2)CC1)Nc1nc(-c2ccco2)c(C(=O)c2ccccn2)s1 [Compound 277, N-[4-(2-Furyl)-5-(pyridin-2-ylcarbonyl)thiazol-2-yl]-2-[4-(2-pyridyl)piperazin-1-yl]acetamide]	215 to 218 °C
O=C(CN1CCN(c2ncccn2)CC1)Nc1nc(-c2ccco2)c(C(=O)c2ccccn2)s1 [Compound 278, N-[4-(2-Furyl)-5-(pyridin-2-ylcarbonyl)thiazol-2-yl]-2-[4-(2-pyrimidinyl)piperazin-1-yl]acetamide]	199 to 200 °C
O=C(CN1CCN(C2CCOCC2)CC1)Nc1nc(-c2ccco2)c(C(=O)c2ccccn2)s1 [Compound 279, N-[4-(2-Furyl)-5-(pyridin-2-ylcarbonyl)thiazol-2-yl]-2-[4-(tetrahydropyran-4-yl)piperazin-1-yl]acetamide]	172 to 188 °C
COc1cccc(C(=O)c2sc(NC(=O)c3ccncc3)nc2-c2ccco2)n1 [Compound 283, N-[4-(2-Furyl)-5-(6-methoxypyridin-2-ylcarbonyl)thiazol-2-yl]pyridine-4-carboxamide]	247 to 250 °C
Cc1cccc(C(=O)c2sc(NC(=O)c3ccncc3)nc2-c2ccco2)n1 [Compound 284, N-[4-(2-Furyl)-5-(6-methylpyridin-2-ylcarbonyl)thiazol-2-yl]pyridine-4-carboxamide]	238 to 241 °C
Cc1ccc(C(=O)c2sc(NC(=O)c3ccncc3)nc2-c2ccco2)nc1 [Compound 294, N-[4-(2-Furyl)-5-(5-methylpyridin-2-ylcarbonyl)thiazol-2-yl]pyridine-4-carboxamide]	255 to 257 °C
Cc1ccnc(C(=O)c2sc(NC(=O)c3ccncc3)nc2-c2ccco2)c1 [Compound 295, N-[4-(2-Furyl)-5-(4-methylpyridin-2-ylcarbonyl)thiazol-2-yl]pyridine-4-carboxamide]	240 to 245 °C
O=C(Nc1nc(-c2ccco2)c(C(=O)c2cccnc2)s1)c1ccncc1 [Compound 304, N-[4-(2-Furyl)-5-(pyridin-3-ylcarbonyl)thiazol-2-yl]pyridine-4-carboxamide]	245 to 248 °C
O=C(c1cccnc1)c1sc(NC(=O)C2CC2)nc1-c1ccco1 [Compound 305, N-[4-(2-Furyl)-5-(pyridin-3-ylcarbonyl)thiazol-2-yl]cyclopropanecarboxamide]	231 to 233 °C
N#Cc1ccc(C(=O)Nc2nc(-c3ccco3)c(C(=O)c3cccnc3)s2)cc1 [Compound 306, 4-Cyano-N-[4-(2-furyl)-5-(pyridin-3-ylcarbonyl)thiazol-2-yl]benzamide]	288 to 290 °C

The next lines start with the values.

melting point	SMILES
158 to 159 °C	CCOC(=O)Nc1nc(-c2ccco2)c(C(=O)c2ccccn2)s1 [Compound 250, Ethyl N-[4-(2-furyl)-5-(pyridin-2-ylcarbonyl)thiazol-2-yl]carbamate]
152 to 153 °C	O=C(Nc1nc(-c2ccco2)c(C(=O)c2ccccn2)s1)OC1CCC1 [Compound 251, Cyclobutyl N-[4-(2-furyl)-5-(pyridin-2-ylcarbonyl)thiazol-2-yl]carbamate]
162 to 163 °C	O=C(Nc1nc(-c2ccco2)c(C(=O)c2ccccn2)s1)OC1CCCC1 [Compound 252, Cyclopentyl N-[4-(2-furyl)-5-(pyridin-2-ylcarbonyl)thiazol-2-yl]carbamate]
144 to 145 °C	O=C(Nc1nc(-c2ccco2)c(C(=O)c2ccccn2)s1)OC1CCOCC1 [Compound 253, 4-Tetrahydropyranyl N-[4-(2-furyl)-5-(pyridin-2-ylcarbonyl)thiazol-2-yl]carbamate]
222 to 225 °C	CN1CCC(OC(=O)Nc2nc(-c3ccco3)c(C(=O)c3ccccn3)s2)CC1 [Compound 254, 1-Methylpiperidin-4-yl N-[4-(2-furyl)-5-(pyridin-2-ylcarbonyl)thiazol-2-yl]carbamate]
158 to 159 °C	O=C(Nc1nc(-c2ccco2)c(C(=O)c2ccccn2)s1)OC(CF)CF [Compound 255, 2-Fluoro-1-(fluoromethyl)ethyl N-[4-(2-furyl)-5-(pyridin-2-ylcarbonyl)thiazol-2-yl]carbamate]
144 to 145 °C	O=C(c1ccccn1)c1sc(NC(=O)N2CCOCC2)nc1-c1ccco1 [Compound 256, N-[4-(2-Furyl)-5-(pyridin-2-ylcarbonyl)thiazol-2-yl]morpholine-4-carboxamide]
182 to 185 °C	O=C(c1ccccn1)c1sc(NC(=O)N2CCCCC2)nc1-c1ccco1 [Compound 257, N-[4-(2-Furyl)-5-(pyridin-2-ylcarbonyl)thiazol-2-yl]piperidine-1-carboxamide]
182 to 186 °C	CC(C)NC(=O)Nc1nc(-c2ccco2)c(C(=O)c2ccccn2)s1 [Compound 258, N-[4-(2-Furyl)-5-(pyridin-2-ylcarbonyl)thiazol-2-yl]-N′-isopropylurea]
150 to 151 °C	COCCNC(=O)Nc1nc(-c2ccco2)c(C(=O)c2ccccn2)s1 [Compound 260, N-[4-(2-Furyl)-5-(pyridin-2-ylcarbonyl)thiazol-2-yl]-N′-(2-methoxyethyl)urea]
184 to 185 °C	O=C(CCl)Nc1nc(-c2ccco2)c(C(=O)c2ccccn2)s1 [Compound 262, 2-Chloro-N-[4-(2-furyl)-5-(pyridin-2-ylcarbonyl)thiazol-2-yl]acetamide]
170 to 171 °C	O=C(CN1CCOCC1)Nc1nc(-c2ccco2)c(C(=O)c2ccccn2)s1 [Compound 264, N-[4-(2-Furyl)-5-(pyridin-2-ylcarbonyl)thiazol-2-yl]morpholinoacetamide]
104 to 106 °C	CC1CCN(CC(=O)Nc2nc(-c3ccco3)c(C(=O)c3ccccn3)s2)CC1 [Compound 266, N-[4-(2-Furyl)-5-(pyridin-2-ylcarbonyl)thiazol-2-yl]-2-(4-methylpiperidino)acetamide]
136 to 145 °C	CN1CCN(CC(=O)Nc2nc(-c3ccco3)c(C(=O)c3ccccn3)s2)CC1 [Compound 272, N-[4-(2-Furyl)-5-(pyridin-2-ylcarbonyl)thiazol-2-yl]-2-(4-methylpiperazin-1-yl)acetamide]
142 to 144 °C	CCN1CCN(CC(=O)Nc2nc(-c3ccco3)c(C(=O)c3ccccn3)s2)CC1 [Compound 273, 2-(4-Ethylpiperazin-1-yl)-N-[4-(2-furyl)-5-(pyridin-2-ylcarbonyl)thiazol-2-yl]acetamide]
154 to 155 °C	CC(C)N1CCN(CC(=O)Nc2nc(-c3ccco3)c(C(=O)c3ccccn3)s2)CC1 [Compound 274, N-[4-(2-Furyl)-5-(pyridin-2-ylcarbonyl)thiazol-2-yl]-2-(4-isopropylpiperazin-1-yl)acetamide]
170 to 171 °C	CC(=O)N1CCN(CC(=O)Nc2nc(-c3ccco3)c(C(=O)c3ccccn3)s2)CC1 [Compound 275, 2-(4-Acetylpiperazin-1-yl)-N-[4-(2-furyl)-5-(pyridin-2-ylcarbonyl)thiazol-2-yl]acetamide]
153 to 155 °C	O=C(CN1CCSC1)Nc1nc(-c2ccco2)c(C(=O)c2ccccn2)s1 [Compound 281, N-[4-(2-Furyl)-5-(pyridin-2-ylcarbonyl)thiazol-2-yl]-2-(1,3-thiazolidin-3-yl)acetamide]
148 to 149 °C	O=C(CN1CCSCC1)Nc1nc(-c2ccco2)c(C(=O)c2ccccn2)s1 [Compound 282, N-[4-(2-Furyl)-5-(pyridin-2-ylcarbonyl)thiazol-2-yl]-2-thiomorpholinoacetamide]

Source: patent US7718808B2, “Thiazole derivatives” (Kyowa Hakko Kirin Co., Ltd., priority 2003, dated 2010)
